Legend:
[1] = target: T1, ADAMTS4 (Homo sapiens, UniProt O75173); assay: Versicanase assay (V1-5GAG, versikine sandwich ELISA); format: biochemical; conditions: 100 µM; compared to DMSO control
T1 construct: Human recombinant full-length FLAG-tagged ADAMTS4 and ADAMTS5 were expressed in HEK293T cells; FLAG; made in house; host or cells: HEK293T cells
T1 sequence (O75173 213-837): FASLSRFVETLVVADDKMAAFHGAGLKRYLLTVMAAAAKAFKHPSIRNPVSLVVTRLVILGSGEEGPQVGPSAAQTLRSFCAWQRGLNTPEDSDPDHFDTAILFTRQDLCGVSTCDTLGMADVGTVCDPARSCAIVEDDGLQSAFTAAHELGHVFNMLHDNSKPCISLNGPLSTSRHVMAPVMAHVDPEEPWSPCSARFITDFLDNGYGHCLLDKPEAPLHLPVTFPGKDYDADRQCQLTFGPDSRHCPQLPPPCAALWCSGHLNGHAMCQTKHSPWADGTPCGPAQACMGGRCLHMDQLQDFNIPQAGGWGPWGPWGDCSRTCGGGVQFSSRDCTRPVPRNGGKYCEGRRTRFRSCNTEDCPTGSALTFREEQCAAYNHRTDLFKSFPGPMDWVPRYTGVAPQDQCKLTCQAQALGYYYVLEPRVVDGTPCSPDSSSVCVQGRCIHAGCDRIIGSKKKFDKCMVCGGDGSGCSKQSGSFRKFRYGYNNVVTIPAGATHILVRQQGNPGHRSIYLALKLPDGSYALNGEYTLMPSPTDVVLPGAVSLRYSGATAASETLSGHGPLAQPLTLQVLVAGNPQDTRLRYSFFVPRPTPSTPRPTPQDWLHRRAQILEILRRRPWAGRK
Protocol: (§1) Human recombinant full-length FLAG-tagged ADAMTS4 and ADAMTS5 were expressed in HEK293T cells (Thermo Fisher Scientific) and purified by anti-FLAG immunoaffinity chromatography as before. Concentrations of active proteases were determined by active-site titrations with known concentrations of TIMP-3 (Bio-Techne, 973-TM-010), using QF peptides as substrates. V1-5GAG, a truncated version of versican V1 isoform comprising residues 21–694 and containing a C-terminal 6x His tag[67], was expressed in HE293T cells and purified by immobilized metal affinity chromatography as before.
(§2) Compounds 1–4 (100 µM) or DMSO were incubated with ADAMTS4 (5 nM) or ADAMTS5 (0.4 nM) for 2 h at 37 °C, before addition of V1-5GAG (50 nM). At each time point, reactions were stopped by addition of ethylenediaminetetraacetic acid and ADAMTS-generated versican fragments (versikine) quantified by sandwich ELISA as before[29],[30],[38] using anti-DPEAAE neoepitope antibody (Life Technologies, PA1-1748 A, 5 µg/ml) and polyclonal anti-versican antibody (Abcam, ab171887, 3 µg/ml). For each reaction, the amount of versikine generated was derived from a standard curve (0–1.56 nM) of V1-5GAG completely digested with ADAMTS5. Initial velocities were calculated from the concentration of versikine generated as a function of reaction time. Percent of inhibition was calculated from the DMSO control reactions. IC50 values were determined using the formula: vi/v0 = 1/(1 + [I]/IC50) where vi is the initial velocity of substrate cleavage in the presence of the inhibitor at concentration [I] and v0 is the initial velocity in the presence of an equal concentration (v/v) of DMSO.

[2] = target: T2, ADAMTS5 (Homo sapiens, UniProt Q9UNA0); assay: as above; format: biochemical
T2 construct: Human recombinant full-length FLAG-tagged ADAMTS4 and ADAMTS5 were expressed in HEK293T cells; FLAG; made in house; host or cells: HEK293T cells
T2 sequence (Q9UNA0 262-930): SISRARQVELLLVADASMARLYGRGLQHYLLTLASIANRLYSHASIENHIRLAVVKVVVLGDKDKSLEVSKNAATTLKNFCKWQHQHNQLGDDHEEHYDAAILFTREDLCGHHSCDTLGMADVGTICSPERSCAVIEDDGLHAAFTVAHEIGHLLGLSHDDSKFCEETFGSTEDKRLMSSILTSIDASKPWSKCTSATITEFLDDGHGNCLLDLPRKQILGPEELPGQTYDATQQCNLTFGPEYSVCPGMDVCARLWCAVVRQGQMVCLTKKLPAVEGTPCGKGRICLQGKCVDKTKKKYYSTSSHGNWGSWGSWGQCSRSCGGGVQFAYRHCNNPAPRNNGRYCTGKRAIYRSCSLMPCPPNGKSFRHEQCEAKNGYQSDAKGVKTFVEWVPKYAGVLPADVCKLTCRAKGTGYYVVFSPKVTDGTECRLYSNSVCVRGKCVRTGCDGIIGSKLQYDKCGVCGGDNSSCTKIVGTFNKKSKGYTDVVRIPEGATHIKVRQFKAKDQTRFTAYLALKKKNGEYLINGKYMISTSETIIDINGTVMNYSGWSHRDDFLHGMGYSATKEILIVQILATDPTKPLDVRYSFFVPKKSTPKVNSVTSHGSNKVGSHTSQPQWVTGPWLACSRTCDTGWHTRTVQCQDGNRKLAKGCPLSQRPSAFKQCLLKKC
Protocol: as §1, §2

- inhibition of ADAMTS4 versicanase activity [1]: sparing ADAMTS4
- inhibition at 100 µM ([2]; 100 µM, compared to DMSO control): 76%
- IC50 of compound 2 relative to parent compound 4b (higher) ([2]; ADAMTS5 versicanase activity): ~ 4 fold
- IC50 ([2]; read-out: IC50 for inhibition of ADAMTS5 versicanase activity): 35 ± 4.8 µM
SMILES: CCC(C)N(Cc1cn(CCCO[C@@H]2O[C@H](CO)[C@@H](O[C@@H]3O[C@H](CO)[C@H](O)[C@H](O)[C@H]3O)[C@H](O)[C@H]2NC(C)=O)nn1)S(=O)(=O)c1ccc(-c2ccccc2)cc1 (stereo partly drawn) [compound 2, N-((2R,3R,4R,5 S,6R)-2-(3-(4-((N-(sec-butyl)-[1,1’-biphenyl]-4-sulfonamido)methyl)-1H-1,2,3-triazol-1-yl)propoxy)-4-hydroxy-6-(hydroxymethyl)-5-(((2 S,3R,4 S,5R,6R)-3,4,5-trihydroxy-6-(hydroxymethyl)tetrahydro-2 H-pyran-2-yl)oxy)tetrahydro-2 H-pyran-3-yl)acetamide]

— paper PMC12769565, “Design, synthesis and biological activity of glycoconjugated ADAMTS5 exosite inhibitors: applications in osteoarthritis and ovarian cancer models” (Scientific Reports, 2025)
